Reference: PMC12703733, “Probing Guanidino Pendant or Bridged Groups in Cyclic Antimicrobial Peptides Derived from Temporin L: A Strategy to Improve Efficacy against Gram-Negative Bacteria” (Journal of Medicinal Chemistry, 2025)
Read-outs that look alike come from different tables or passages of the source. Bridge positions count the residues as written; N and C are the ends. Square brackets hold non-standard residues; d marks the D form. Peptide text beside a SMILES is read from it.

Experiments:
[1] = test system: all bacteria tested; experiment: MIC panel, geometric mean over all strains; format: cell-based; conditions: geometric mean of the MICs against all bacteria tested
Description: (§1) The antimicrobial efficacy of the TLcyc analogues was assessed against a representative panel of Gram-positive and Gram-negative bacterial strains, by determining their minimal inhibitory concentrations (MIC), as summarized in Table . To provide an integrated measure of antimicrobial potency, we calculated the geometric mean (GM) of MIC values across all strains (GMall), as well as separately for Gram-positive (GMGram+) and Gram-negative (GMGram–) bacteria.
(§2) Bacterial strains used in this study were the Gram-positive S. aureus ATCC 25923, S. epidermidis ATCC 12228, B. megaterium BM11, S. agalactiae ATCC 27591, E. faecalis ATCC 29212 and the Gram-negative E. coli ATCC 25922, P. aeruginosa ATCC 27853, A. baumannii ATCC 19606, E. coli D21 and P. aeruginosa PAO1. […] Bacterial cells in the mid log phase were diluted in Muller Hinton (MH) at a concentration of 2 × 10^6 cell/mL. Aliquots of 50 μL of this bacterial suspension were added to 50 μL of MH containing serial 2-fold dilutions of the peptides (from 100 to 0.19 μM) in the wells a 96-well plate. Ciprofloxacin was used as antibiotic control. The plate was then incubated at 37 °C. MICs were obtained from three identical readings of four independent experiments.

[2] = format: cell-based, P. aeruginosa
Description: The antibiofilm activity was evaluated as elsewhere reported. Bacteria grew at 37 °C until they reached an optical density (OD) of 0.8 (λ = 590 nm). The culture was diluted to a cell density of 1 × 10^6 colony-forming units (CFUs)/mL and aliquots of 100 μL of this suspension were dispensed into the wells of a 96-multiwell plate. After biofilm formation (incubation time = 20 h at 37 °C), all the planktonic cells were removed, and the wells were washed twice with PBS (150 μL). After washing, the wells were filled with PBS supplemented with different 2-fold serial dilutions of the tested peptides (from 50 to 1.56 μM). After peptide treatment (incubation time = 2 h at 37 °C) the wells were washed with PBS twice and filled with 150 μL of MTT (0.5 mg/mL) to evaluate biofilm viability after 4 h incubation at 37 °C. The reaction was then stopped by adding SDS (final concentration equal to 5% v/v). A microplate reader (Infinite M200; Tecan, Salzburg, Austria) was used to measure the absorbance of each well at 570 nm and the percentage of biofilm viability was calculated relative to the untreated samples.

[3] = test system: Gram-negative bacteria tested; experiment: MIC panel, Gram-negative strains (geometric mean); format: cell-based; conditions: geometric mean of the MICs against Gram-negative bacteria tested
Description: as §1, §2

[4] = Circular dichroism in water (BeStSel); format: physicochemical; conditions: predicted from CD spectra in H2O using BeStSel
Description: The secondary structure of each peptide was studied in solution and in small unilamellar vesicles (SUVs) mimicking Gram-positive and Gram-negative membranes performing CD analysis. The CD spectrum for each peptide in solution was recorded at 150 μM, using the quartz cells of 0.1 cm path length with a Jasco J-1500 CD Spectrometer at 25 °C. SUVs at the concentration of 150 μM (P/L = 1) and […] (P/L = 0.4) were prepared as reported: the lipid film was hydrated with water for 1h and then sonicated for 30 min. CD spectra were recorded at the peptide/lipid ratio of 1:1 both in the presence with SUVs mimicking Gram-positive and Gram-negative membranes. CD spectra were recorded at 25 °C on a in a 0.1 cm quartz cell using three consecutive scans from 260 to 190 nm, 3 nm bandwidth, a time constant of 16 s, and a scan rate of 10 nm/min.

[5] = test system: Gram-positive bacteria tested; experiment: MIC panel, Gram-positive strains (geometric mean, range); format: cell-based; conditions: geometric mean of the MICs against Gram-positive bacteria tested
Description: as §1, §2

[6] = Description: The fusogenic ability of peptides was studied performing the lipid mixing experiment and evaluating a reduction in the fluorescence energy transfer efficiency between fluorophores 12-(N-methyl-N-(7-nitrobenz-2-oxa-1,3-diazol-4-yl)) (NBD) and Rhodamine (Rho) bound to liposomes. We prepared unlabeled LUVs mimicking Gram-positive and Gram-negative membranes at a concentration of 0.16 mM, and labeled LUVs mimicking Gram-positive and Gram-negative membranes with 0.6% mol of NBD-PE and 0.6% mol of Rho-PE at the concentration of 0.04 mM. LUVs were prepared as described above, and for the experiment, unlabeled and labeled LUVs were mixed at a 1:4 ratio to have final lipid concentration of 0.1 mM. The fusogenic activity of each peptide was evaluated at lipide/peptide ratio of 0.01, 0.03, 0.05, 0.1, 0.2, 0.3, 0.5, and NBD emission at 530 nm and Rho emission at 590 nm were recorded setting an NBD excitation wavelength set at 465 nm.
The percentage of fusion was calculated as a function of 100% value corresponding to complete mixing of LUVs upon the addition of Triton X-100 (0.05% v/v). The percentage fusion was calculated as [F530/F590]peptide−[F530/F590]blank/[F530/F590]triton−[F530/F590]blank×100 where F 530 and F 590 are the fluorescence intensities at 530 and 590 nm calculated in the absence and in the presence of the peptide and Triton X-100.

Q: With `CC[C@H](C)[C@H](NC(=O)[C@H](CCCNC(=N)N)NC(=O)[C@H]1CCC(=O)NCCCC[C@H](NC(=O)[C@H](Cc2ccccc2)NC(=O)[C@H](Cc2c[nH]c3ccccc23)NC(=O)[C@@H]2CCCN2C(=O)[C@@H](NC(=O)[C@@H](N)Cc2ccccc2)C(C)C)C(=O)N[C@@H](CCCCN)C(=O)N[C@@H](Cc2ccccc2)C(=O)N[C@H](CC(C)C)C(=O)N1)C(=O)N[C@@H](CC(C)C)C(N)=O` [Peptide 2, FVPWF[KKFle]RIL] (H-FVPWFKKF[dL][dE]RIL-NH2; lactam 6-10) as the molecule, how does the “geometric mean GMall” value [1] read?
A: Its value is 8.81 µM.

Q: What about the viability [2] of the same molecule?
A: Its viability is > 70%.

Q: And the “geometric mean GMGram–” value [3]?
A: Its value is 16.4 µM.

Q: And the “Content in water (%) random” value [4]?
A: Its value is 55%.

Q: And the “Content in water (%) α-helix” value [4]?
A: Its value is 7%.

Q: And the “Content in water (%) β-strand” value [4]?
A: Its value is 38%.

Q: What about the “geometric mean GMGram+” value [5] of the same molecule?
A: Its value is 4.72 µM.

Q: And the fusion ([6]; LUVs DOPG:CL, P/L ratio of 0.3)?
A: Its fusion is 100%.

Q: What about the fusion ([6]; LUVs DOPG:DOPE:CL, P/L ratio of 0.5) of the same molecule?
A: Its fusion is 75%.
